Residues, ends and D or L forms follow the SMILES beside them.
Compared with `O=C(O)c1ccc(CCCC2SCC(=O)N2CC#CC2(O)CCCCC2)cc1` (stereo unspecified), `COc1ccc(S(=O)(=O)C2(C(=O)O)CCN(C3CCCCCCC3)CC2)cc1` is higher in melting point: 112 to 115 °C for the first, 180 °C for the second.

`Cc1ccc(C)n1C1=CC2=C(CC1)CCc1[nH]c(=O)c(=O)[nH]c12` and `O=C(Nc1ccc2[nH]c(=O)c(=O)[nH]c2c1)C(F)(F)F` cannot be ordered by melting point: over 265 °C for the first, over 330 °C for the second.

First: CCOC(=O)c1cccc(OCCCCCCCc2cc(C)no2)c1
Second: CCCCCCOc1ccc(O)c2cc(C)c(C)cc12
The melting point of the first is lower: 16 to 18 °C for the first, 72 to 73 °C for the second.

First: CCCc1nn(-c2ccc(C(F)(F)F)cn2)cc1CCCCOc1ccc(CCC(=O)O)c(C)c1
Second: ClCCCCCOc1ccc(Br)c(CCOCc2ccccc2)c1
The melting point of the first is higher: 105 to 107 °C for the first, 54 to 55 °C for the second.

First: CC(C)(C)c1cccc(S(=O)(=O)n2c(Cc3cccc(C(=O)O)c3)cc3cc(C(F)(F)F)ccc32)c1
Second: CS(=O)(=O)c1ccc(C2=C(c3ccc(C(F)(F)F)cc3)CCC2)cc1
The melting point of the first is higher: 146 °C for the first, 134 to 135 °C for the second.

First: CCCN(c1ncnc2[nH]cnc12)n1ccc2ccccc21
Second: CCCCc1nc2ccccn2c(=O)c1-c1ccc(Cl)cc1C
The melting point of the first is lower: 90 to 95 °C for the first, 105 to 107 °C for the second.

First: CC(C)n1c(-c2ccc(F)cc2)c(/C=C/C(=O)O)c2ccccc2c1=O
Second: COc1cc(C=CC(=O)Nc2c(-c3ccccc3Cl)c3cc(C(C)C)ccc3n(C)c2=O)cc(OC)c1OC(C)=O
The melting point of the first is higher: 233 to 234 °C for the first, 187 to 189 °C for the second.

Compared with `COC(=O)NCc1nc(-c2ccc3c(c2)Nc2ccccc2S3)cs1`, `COc1ccc(Cl)cc1C(=O)NCCc1ccc(-c2ccccn2)c(S(N)(=O)=O)c1` is higher in melting point: 151 to 153 °C for the first, 202 to 203 °C for the second.

Compared with `CCCCCCCc1cn2cc(-c3ccc(O)cc3)nc2s1`, `CCc1c(-c2ccc(O)cc2)c2c(COCCCCCN3CCCCC3)cc3c(O)ccc1n32` is lower in melting point: 122 °C for the first, 120 to 121 °C for the second.

First: Cn1ncc(C(N)=O)c1-c1ccc([N+](=O)[O-])o1
Second: CCOc1ncc(I)cc1C(N)=O
The melting point of the first is lower: 174 to 176 °C for the first, 176 to 179 °C for the second.

First: Cc1nc(Cl)c(SC(F)F)n1-c1c(Cl)cc(C(F)(F)F)cc1Cl
Second: COC(=O)C(C)OC(=O)c1cc(-n2c(=O)cc(C(F)(F)F)n(C)c2=O)c(F)cc1Cl (stereo unspecified)
The melting point of the first is higher: 118 °C for the first, 102 to 104 °C for the second.

First: CC1(C)C2C=CC3(C)C(C2)C(=O)CCC13O (stereo unspecified)
Second: C=Cc1cc(C)cc(C)c1CC(=O)N(C)C1(C#N)CCN(OC)CC1
The melting point of the first is lower: 112 to 115 °C for the first, 148 to 151 °C for the second.

First: CN(C(=O)c1ccc2nonc2c1)C1CCCC1
Second: O=[N+]([O-])c1ccc2nc3c(nc2c1)OCC1CCCN31 (stereo unspecified)
The melting point of the first is lower: 110 to 111 °C for the first, 234 to 237 °C for the second.

Compared with `CN(CCF)c1nc2cc(NC(=O)c3c(C(=O)N4CCOCC4)cnn3C)ccn2n1`, `NC(=O)c1ccc(CCCCCCN2CCOCC2)cc1O` is lower in melting point: 144 to 145 °C for the first, 70 to 73 °C for the second.

Compared with `COC(=O)c1c(Br)c(F)cc2nn(C)cc12`, `CC(=O)NCCOc1ccc2c(-c3ccccc3F)noc2c1Cl` is higher in melting point: 146 to 147 °C for the first, 154 to 155 °C for the second.

Compared with `COc1ccc(CN2CC=C(c3cc4ccccc4s3)CC2)cc1`, `Cc1cccc(-c2n[nH]cc2-c2ccc(F)c(-c3ccc(CN4CCOCC4)cn3)c2)n1` is lower in melting point: 158 to 160 °C for the first, 68 to 70 °C for the second.

First: CCc1ccc2sc3cc(C#N)ccc3c(=O)c2c1
Second: CCc1ccc2c(c1)CC(=O)N2c1c(C)cccc1Cl
The melting point of the first is higher: 198 to 215 °C for the first, 125 to 126 °C for the second.

First: CCC(O)c1ccc(Cl)c2nc3n(c12)CCCN3c1c(Cl)cc(Cl)cc1Cl (stereo unspecified)
Second: CC(=O)c1cc2c(s1)SCCc1cc(=O)n(-c3ccc(Cl)cc3)nc1-2
The melting point of the first is lower: 213 to 214 °C for the first, 248 to 250 °C for the second.

Compared with `Clc1ccc(Cn2cnc3c(-c4ccco4)ncnc32)cc1Cl`, `CC(C)CC(=O)Nc1cccc(-c2ccnc3c(-c4cccc(Cl)c4Cl)cnn23)c1` is lower in melting point: 183 to 185 °C for the first, 154 to 156 °C for the second.

Compared with `CCOC(=O)c1ccc(C=C2C(=O)COC2=O)s1`, `CCOC(=O)c1c(SC)nc(C2CC2)n1Cc1ccc(-c2ccccc2S(=O)(=O)NC#N)cc1` is higher in melting point: 204 to 206 °C for the first, over 260 °C for the second.

First: CONS(=O)(=O)c1ccc(Cl)c(C(F)(F)F)c1
Second: CCOC(=O)C1=C(COCCNc2nc(N)n[nH]2)NC(C)=C(C(=O)OC)C1c1cccc(C(F)(F)F)c1Cl (stereo unspecified)
The melting point of the first is lower: 88 to 90.5 °C for the first, 144 to 145 °C for the second.

First: CCS[C@@H]1c2ccn3c(C)c(C)nc3c2N[C@H](c2ccccc2)[C@H]1O
Second: COCCO[C@H]1c2ccn3c(C)c(C)nc3c2N[C@H](c2ccccc2)[C@H]1OC(=O)c1ccccc1
The melting point of the first is higher: 220 to 223 °C for the first, 78 to 80 °C for the second.

Compared with `COc1ccc(CN([C@@H](CO)c2ccccc2)S(=O)(=O)c2ccc(Cl)cc2)cc1C(=O)O`, `CCCc1nc(SC)c(C=O)n1Cc1ccc(-c2ccccc2S(=O)(=O)NC(=O)NCc2ccccc2)cc1` is higher in melting point: 79 to 80 °C for the first, 180 °C for the second.

Compared with `O=C1OC(CCc2ccccc2)(c2ccccc2)CC(O)=C1Sc1ccccc1` (stereo unspecified), `CN(C)C(=O)c1c(Oc2ccccc2)cccc1Oc1ccccc1` is higher in melting point: 58 to 60 °C for the first, 109 to 111 °C for the second.

Compared with `CC(=O)NC1CN(CCN2CCOCC2)S(=O)(=O)c2sc(S(N)(=O)=O)cc21` (stereo unspecified), `Cc1nnc(-c2ccc3ncn(C4CCN(S(C)(=O)=O)CC4)c3c2)o1` is higher in melting point: 110 to 112 °C for the first, 233 to 234 °C for the second.

Compared with `CC(C)(C)OC(=O)C(Cl)=CC1C(C(=O)O)C1(C)C` (stereo unspecified), `CC(C)(C)OC(=O)N[C@@H](Cc1ccccc1)[C@@H](O)CO` is higher in melting point: 65 °C for the first, 95 to 96 °C for the second.

Compared with `Cc1cccc(Cn2cccc2C(=O)CC(=O)C(=O)O)c1`, `N#Cc1cccc(CN2CCc3ccccc32)c1` is lower in melting point: 140 to 141 °C for the first, 54.5 to 56 °C for the second.

First: CCCCc1ncc(/C=C2\C(=O)N(CC(=O)OCC)c3c(OC)cccc32)n1Cc1ccc(C(=O)OC)cc1
Second: CC(C)C1CCN(Cc2ccc(COc3cccc4c3CN(C3CCC(=O)NC3=O)C4=O)cc2)CC1 (stereo unspecified)
The melting point of the first is higher: 157 to 158 °C for the first, 124 to 126 °C for the second.

First: O=C(c1ccc([N+](=O)[O-])cc1)N1Cc2ccnn2Cc2ccccc21
Second: CC(=O)c1ccc(OC(C)c2ccnc3ncnn23)cc1 (stereo unspecified)
The melting point of the first is higher: 227 to 229 °C for the first, 136 to 138 °C for the second.

First: CC(C)(C)C(COC(N)=O)(NC(=O)c1ccccc1)c1c[nH]c2ccc(Br)cc12 (stereo unspecified)
Second: COC(=O)C(CSSc1ccccc1C(=O)Nc1ccc(S(N)(=O)=O)cc1)NC(C)=O (stereo unspecified)
The melting point of the first is higher: 187 °C for the first, 138 to 140 °C for the second.

First: CC(=O)NC(Cc1ccccc1)C(=O)NC(Cc1ccccc1)C(=O)NC(Cc1c[nH]cn1)C(=O)O (stereo not drawn) (Ac-Phe-Phe-His-OH; configuration not given here)
Second: CSCCC(NC(=O)OCc1ccccc1)C(=O)Nc1nncs1 (racemic)
The melting point of the first is lower: 143 to 145 °C for the first, 155 to 159 °C for the second.

First: Cc1cnc2c(c1)CCCC2S(=O)(=O)c1ccccc1 (stereo unspecified)
Second: Cc1[nH]c2ccc(OS(=O)(=O)c3c(F)cccc3F)cc2c1C1CCN(C)CC1
The melting point of the first is lower: 84 to 86 °C for the first, 138 °C for the second.

First: CCN(CC)CCN1c2ccccc2N(C)C(=O)c2ccc(C)nc21
Second: CCN1C(=O)c2ccc(C)cc2Oc2ncccc21
The melting point of the first is higher: 91 to 93 °C for the first, 88 to 90 °C for the second.

Compared with `COc1ccc(CN[C@@H]2CCCC[C@H]2NCc2ccc(OC)cc2)cc1` (relative stereo), `O=C(O)C1=Cc2cc(OCc3ccc(F)cc3)ccc2S(=O)(=O)CC1` is higher in melting point: 110 to 112 °C for the first, 270 to 273 °C for the second.

First: COc1ccc([C@H](CC(=O)O)n2ccn(CCCc3ccc4c(n3)NCCC4)c2=O)cn1
Second: CCN1C(=O)CCCc2c1ccc(Nc1ncc(Cl)c(Nc3ccccc3-n3cccn3)n1)c2OC
The melting point of the first is lower: 123 °C for the first, 183 to 185 °C for the second.

Compared with `CCCCOc1c(CNC(=O)OC(C)(C)C)n(CC2CC2)c(=O)c2ccc(C(=O)O)cc12`, `CN(C)/C=C/c1cc(OC2CCN(C(=O)OC(C)(C)C)CC2)ccc1C#N` is lower in melting point: 197 to 198 °C for the first, 135 to 137 °C for the second.

Compared with `NC(=O)c1ccc(-c2ccc3nnn(Cc4c(F)cc5ncccc5c4F)c3n2)cc1Cl`, `O=Cc1cccc(-c2nc3sccn3c2-c2ccnc(N[C@@H]3CCCN(S(=O)(=O)c4ccc(Cl)cc4)C3)n2)c1` is lower in melting point: 216 to 219 °C for the first, 124 to 126 °C for the second.

First: N=C(NO)c1ccc(-c2ccc(-c3ccc(C(=N)NO)cn3)o2)nc1
Second: Cc1ccc(N2C(=O)C(O)=C(C(=O)c3ccc(C(C)C)cc3)C2c2ccc(C(C)C)cc2)cn1 (stereo unspecified)
The melting point of the first is higher: 272 to 274 °C for the first, 252 to 254 °C for the second.

First: COc1cc(/C=C/C(=O)/C=C/c2cc(OC)c(OCCO)c(OC)c2)cc(OC)c1OCCO
Second: COc1cc(OC)cc(-n2c(-c3ccccc3)cc(=O)c(C)c2-c2ccccc2)c1
The melting point of the first is lower: 133 to 135 °C for the first, 232 to 236 °C for the second.

Compared with `CN1CCN(c2cccc(-c3cnn4c(N)c(-c5cccc(Br)c5)cnc34)c2)CC1`, `CCn1nc2c(N)nc3ccccc3c2c1CCCCN1C(=O)c2ccccc2C1=O` is higher in melting point: 195 to 197 °C for the first, 216 to 217 °C for the second.

First: C[Si](C)(C)N=C(C(=N[Si](C)(C)C)c1ccccc1)c1ccccc1
Second: Ic1cccc(C=Cc2ccccc2)c1
The melting point of the first is lower: 69 to 70 °C for the first, 96 °C for the second.

First: CN1C(=O)COc2cc3c(cc21)C1(CO3)C(=O)N(CC2CCCO2)c2ccccc21 (stereo unspecified)
Second: CCN(c1ccc(C)c2cc(-c3ncc(C(C)O)s3)[nH]c12)S(=O)(=O)c1cccs1 (stereo unspecified)
The melting point of the first is lower: 79 to 81 °C for the first, 152 to 153 °C for the second.

First: O=C(CCCCO)NCC1Cc2ccccc2Cc2ccccc21 (stereo unspecified)
Second: OC1CSC(Oc2cnccc2-c2ccc(F)cc2)C(O)C1O (stereo unspecified)
The melting point of the first is lower: 96 to 98 °C for the first, 219 °C for the second.

Compared with `COC(=O)Cc1ccnc(NC=O)n1`, `O=C(O)Cc1c(C(=O)c2ccc(Cl)cn2)[nH]c2ccc(Cl)cc12` is higher in melting point: 103 to 107 °C for the first, 259 to 260 °C for the second.

Compared with `O=[N+]([O-])c1cccc2cc(-c3nccs3)[nH]c12`, `CC(N1C(=O)C(=O)N(c2ccc(C(C)(C)C)cc2)C1=S)C(C)(C)C` (stereo unspecified) is higher in melting point: 130 to 131 °C for the first, 209 to 210 °C for the second.

Compared with `Cc1c(C(=O)c2cnn(C(C)(C)C)c2O)ccc(S(C)(=O)=O)c1C1=NOC2CC12` (stereo unspecified), `CCOC(=O)C(C)Cc1ccc(-n2c(C)nn(-c3ccc(C#N)cc3)c2=O)cc1` (stereo unspecified) is higher in melting point: 69 to 74 °C for the first, 124 to 128 °C for the second.

First: CCCCCCCCCCC#CC#CCCCCCCCCC(=O)OC(=O)CCCCCCCCC#CC#CCCCCCCCCCC
Second: CCCCCCCCCCCCCCCCSCc1ccc(N(C)C)cc1
The melting point of the first is higher: 58 to 59.5 °C for the first, 41 to 43 °C for the second.

Compared with `CNc1nc2c(s1)C(=O)CC(C)(C)C2`, `COC1C(CO)OC(n2c3ccc(CO)cc3c3c4c(c5c6cc(CO)ccc6[nH]c5c32)C(=O)NC4=O)C(O)C1O` (stereo unspecified) is higher in melting point: 217 to 218 °C for the first, over 300 °C for the second.
